In publication PMC11096368, “Transcriptomic signature, bioactivity and safety of a non-hepatotoxic analgesic generating AM404 in the midbrain PAG region” (Scientific Reports, 2024):
“Also recorded” adds a separate entry of the source.

Legend:
[1] = system: beagle dogs; test: Cardiovascular effect in conscious telemetered beagle dogs (GLP); assay type: in vivo, dog; conditions: oral, 30, 90, 150 mg/kg
Description: The effects of SRP-001 on hERG current amplitude at physiologic temperatures were evaluated over a nominal concentration range of 0.1 μM to […]. A vehicle group (10% DMSO) was included in the study for comparison, and dofetilide (10 nM) was used as a reference substance. The vehicle and positive controls indicated appropriate sensitivity of the test systems. […] Next, the potential acute effects of oral SRP-001 on cardiovascular function in conscious telemetered beagle dogs was done using a Latin Square design; 4 male naïve beagle dogs each received vehicle (10% DMSO: 10% labrasol: 80% PEG400) and three doses (30, 90, and 150 mg/kg) of SRP-001 nanosuspension by oral gavage. […] A single dose was administered on the day of dosing, and a washout period of seven days was allowed between doses. One-min means of hemodynamic parameters, as well as ECG parameters and body temperature, were measured for a period of at least 24 h. One-min tracings of the ECGs were obtained at 15 min prior to dosing and at 30 min, 1, 2, 4, 8, 12, and 24 h post-dose. Qualitative evaluation of the ECGs was done by a board-certified veterinary cardiologist.

[2] = system: male Sprague–Dawley rats; test: Pulmonary function evaluation in conscious rats (GLP); assay type: in vivo; conditions: oral, 220, 440, 660 mg/kg
Description: The potential effects of orally administered SRP-001 on respiratory rate, tidal volume, and minute volume in conscious male Sprague–Dawley rats was studied in 24 male rats. The rodents were trained for two days in the head-out plethysmograph chamber for 15–17 min each prior to the experiment. On the day of dosing, each animal was weighed and placed in the plethysmograph chamber, and baseline respiratory parameters were obtained for 5 min following an approximately 5-min stabilization period. The rats were then removed from the chamber and dosed by oral gavage. Three groups of six male Sprague–Dawley rats each were orally administered SRP-001 at a single dose of 220, 440, or 660 mg/kg at a dose volume of 10 mL/kg. […] Following dosing, each animal was returned to its designated plethysmograph chamber, and the respiratory parameters were recorded at 30 min (± 5 min), 2, 4, and 6 h (± 15 min). Animals were allowed to stabilize in the plethysmograph chamber for at least 5 min before each reading was taken. The following parameters were acquired, recorded, and analyzed using Ponemah Physiology Platform (Ponemah v.5.20 Pulmonary); Respiratory rate, Tidal Volume, and Minute Volume, Values for the test article treated group were compared to the vehicle control values using a two-way repeated measures ANOVA followed by a Bonferroni Multiple Comparison Test (SigmaStat, v. 4.0). […]

[3] = system: Peripheral blood reticulocytes; test: In vivo mammalian micronucleus assay; set-up: species or system rats
Description: Male rats were dosed at 500, 1000, and 2000 mg/kg/d once per day on two consecutive days at 10 mL/kg via oral gavage using 10% labrasol, 10% DMSO, and 80% PEG400 as the vehicle (Bioreliance, Rockville, MD USA). Approximately 48 h after the second dose administration, peripheral blood was collected for flow cytometric analysis of micronuclei. There was no significant increase in the incidence of micronuclei in the test article-dosed animals compared to the concurrent vehicle control. The vehicle control value was compatible with the historical range of % micronucleated reticulocytes (MnRETs). There was a statistically significant increase in MnRETs in the positive control compared to the concurrent vehicle control.

[4] = system: beagle dogs; conditions: dog, in vivo
Description: Two beagle dogs (1/sex) were administered 30, 100, 250, or 500 mg/kg SRP-001. […] After a period of at least 2 d (minimum of 44 h) following the previous dose of test article, additional dose levels of SRP-001, as indicated above, were administered by oral gavage to the same 2 dogs (1 male and 1 female). Each dose was based on the dog’s most recent body weight. Mortality/morbidity was observed twice daily and once prior to scheduled sacrifice. Body weights were recorded prior to randomization/selection, prior to each dose administration, and prior to scheduled sacrifice. At scheduled sacrifice, a gross necropsy was performed, and the tissues were appropriately discarded. […] Doses for Phase II of the study were set based on Phase I results. The actual dose amounts selected for Phase II of the study were 0, 30, 100, or 300 mg/kg/d of SRP-001. These doses were administered once daily for seven consecutive days to 1 Beagle dog/sex/dose.

[5] = 7-day repeat-dose oral toxicity and toxicokinetic study, Phase II (non-GLP); assay type: in vivo; conditions: both sexes, Beagle, dog, in vivo, 300 mg/kg/day, 30, 100, 300 mg/kg/d, days 1 and 7
Description: (§1) In Phase II of this study, 0, 30, 100, or 300 mg/kg/d of SRP-001 was administered once daily for seven consecutive days to 1 Beagle dog/sex/dose (Calvert Labs/Altasciences, Scott Township, PA USA). Mortality/morbidity was observed twice daily and once prior to scheduled sacrifice. Clinical observations were evaluated prior to each dose administration and at approximately 1–3 h post-dose and once prior to scheduled sacrifice on day 8. Body weights were recorded on days 1 and 7, and a fasted body weight was recorded prior to scheduled sacrifice on day 8. Food consumption was recorded daily. Blood for evaluation of hematology, coagulation, and clinical chemistry parameters and urine for urinalysis was collected from all animals prior to treatment initiation and from all Phase II animals prior to scheduled sacrifice on day 8. Blood for toxicokinetic evaluation was collected at selected time points on days 1 and 7. Selected tissues were harvested and weighed at necropsy. No microscopic evaluations were performed. […] The clinical observations corroborated with findings of red discoloration in the duodenum of the control group female, the jejunum of the low-dose male, and the colon of both high-dose dogs.
(§2) The reason for this is unclear; however, it may be due to a low sample size (n = 2 per dose group). Half-lives ranged from approximately 1 to 3.5 h and increased with dose and time. […] Based on these observations, SRP-001 was considered to be tolerated at 300 mg/kg when administered once daily for 7 consecutive days. Our toxicokinetic analysis indicates elevated systemic exposures to SRP-001 on Day 1 relative to Day 7. […] A plausible mechanistic explanation for this observed decrease is the induction of metabolic enzymes, likely involving UGT and potentially CYP3A enzymes, as elaborated above and substantiated by previous research. […] The NOAEL exposure parameters align well with the highest SAD dose in the Phase 1 trial, reinforcing the drug's safety profile. The observed PK decrease is not attributed to emesis but likely to enzymatic induction and will be the subject for future investigation.

[6] = system: beagle dogs; test: as above; assay type: in vivo
Description: as §1, §2

[7] = system: FAAH, CORO2A, and RPL7L1 expression; test: Single-cell RNA sequencing of midbrain PAG in the CFA model; assay type: in vivo; conditions: 100 mg/kg, 1 h, CFA rats
Description: Subsequently, we endeavored to explore the single-cell transcriptome of the eVF rat mid-brain PAG region to further define the mechanisms of action (MOA) of chronic inflammatory pain and, ultimately, SRP-001- and ApAP-mediated pain modulation. Left hind paws of Sprague Dawley rats were injected with 150 µl of 50% complete Freund’s adjuvant (CFA), freshly diluted with sterile saline on the day of administration, to induce conspicuous long-standing inflammatory pain in the rats’ hind paws, along with mechanical hyperalgesia tested using eVF.to induce local inflammation and a chronic pain state. We dosed the rats with ApAP or SRP-001 (100 mg/kg), and after 1 h, they were euthanized to dissect the PAG from flash-frozen brains for 10xGenomics single-nuclei RNA library preparation (Fig. 4a).
For cell nuclei isolation from the midbrain PAG, they were flash-frozen, dissected (by a cryotome), minced into small pieces, homogenized, filtered through 70 μ strainer and centrifuged. ReadiDrop 7-AAD cell viability dye (Bio-Rad) added, and flow sorted the live (7-AAD positive) nuclei in a BioRad Cell Sorter S3e using purity mode. Nuclei were counted using Nexcelom automated Cellometer with acridine orange/propidium iodide (AOPI) stain, and the Nuclei Stock Concentration used so that 10,000 nuclei could be targeted for each sample. […]

For CCN(CC)C(=O)c1ccccc1S(=O)(=O)NCC(=O)Nc1ccc(O)cc1 [SRP-001, N,N-diethyl-2-[[2-(4-hydroxyanilino)-2-oxo-ethyl]sulfamoyl]benzamide], the “Cardiovascular findings (blood pressure, heart rate, ECG, body temperature)” value [1] was “did not induce any biologically relevant effects; also recorded: No significant findings”, the “Respiratory findings (respiratory rate, tidal volume, minute volume)” value [2] was “did not induce any significant effects; also recorded: No significant findings” and the Micronucleus assay result ([3]; 500, 1000, 2000 mg/kg/day, 2 days, oral gavage) was “negative (non-clastogenic); also recorded: Under the conditions of this study, the administration of SRP-001 at doses up to and including a dose of 2000 mg/kg/day was concluded to be negative in the Micronucleus assay”. For the same molecule, the “% RETs (reticulocytes)” value ([3]; treatment groups versus vehicle) was “Statistically significant decreases”, the Gross necropsy [4] was “some red discoloration in the GI tract” and the Tmax [5] was 0.5 to 1.5 h. The half-life ([5]; read-out: Half-lives) was 1 to 3.5 h, the “AUC and Cmax levels versus dose” value ([6]; dog, in vivo) was “increased in a dose-dependent manner” and the “Body weight, food consumption, hematology, clinical chemistry, coagulation parameters” value ([6]; dog, in vivo) was “No SRP-001-related differences”. For the same molecule, the Clinical signs ([6]; dog, in vivo) was “loose or soft feces and emesis”, the “Dose considered to be tolerated” value ([6]; once daily for 7 consecutive days) was 300 mg/kg and the “Expression of FAAH, CORO2A, and RPL7L1 in PAG (scRNAseq)” value [7] was “Downregulation”.
